How the values were obtained:
ApoE3 Leiden mice = test: cuff-induced neointimal thickening in femoral artery; format: in vivo, mouse; settings: for intima media ratio: vs control group; for lumen size (HPS stained vessel segments): vs control group A
From the text: Neointimal and medial thickening is an early and essential stage in the development of atherosclerotic lesions and an essential component of restenosis. It is accompanied by fibrotic changes in the neointima and media of the vascular wall. This study evaluated the role of blocking SSAO in fibrotic disease by evaluating the effect of systemic delivery (by daily ip injection) of a small molecule SSAO inhibitor (mofegiline, BTT-2089) on cuff-induced neointimal thickening (cuff-induced stenosis) in the femoral artery of ApoE3 Leiden mice that received a moderate western type diet.
Methods: 40 male ApoE3*Leiden mice (age 12 weeks) were fed a mildly hypercholesterolemic diet for 3 weeks prior to surgical cuff placement. Treatment was daily ip injections with 1) vehicle; 2) dexamethasone in drinking water at 9 mg/I; 3) daily ip injections of BTT-2089 at 10 mg/kg; 4) BTT-2089 at 30 mg/kg, all started one day prior to surgery and continued during the experimental period. At day 0 surgery was performed, i.e. a non-constricting cuff (2-3 mm in length) was placed around both femoral arteries of the mice. 10 mice of each group were sacrificed after 2 weeks for histomorphometric analysis to quantify the inhibition of accelerated atherosclerotic lesions and neointima formation. […] This was reflected in the increased lumen size in examples of HPS stained vessel segments in SSAO inhibitor treated groups when compared to a control group (FIG. 12).
A second study, in the same model, was performed with another SSAO inhibitor from a chemical class distinct from BTT-2089. This hydrazine based inhibitor (BTT-2079) was dosed at a level of 10 mg/kg by daily i.p injection and compared with BTT-2089 at 30 mg/kg. In all other respects the study was performed in the same manner except that the dexamethasone control group was omitted. […] Vascular integrity was not affected.

C57BL/6J mice = test: tobacco smoke induced mouse model of COPD, BAL cell counts; format: in vivo; settings: for reduction of total number of cells in BAL: 5 mg/kg orally once daily 11 days, 1 h prior to TS
Experimental: C57BL/6J mice were exposed once daily to tobacco smoke (TS) for 11 consecutive days resulting in pulmonary inflammation 24 hours following the final TS exposure. After 11 days the response comprised of significant increases in macrophages, epithelial cells, eosinophils, neutrophils and lymphocytes.
Mice were randomly divided into study groups (n=10) and treated with a vehicle (5 ml/kg PBS pH 7.4+0.1% Polysorbate 80) or mouse monoclonal anti-VAP-1 antibody (3 mg/kg or 9 mg/kg BTT-1029 in the vehicle) intravenously on Days −1, 3, 6, and 9 at 4 h post TS exposure. Another group (n=10) received the vehicle intravenously and was exposed to air for an equivalent length of time. Two further groups of mice (n=10) received another vehicle (0.5% carboxymethylcellulose, sodium salt (CMC) in sterile water) or a reference compound (5 mg/kg Roflumilast in 0.5% CMC) orally once a day for 11 consecutive days at 1 h prior to each TS exposure. A final group (n=10) received the oral vehicle (0.5% CMC) and was exposed to air for an equivalent length of time.
All results were presented as individual data points for each animal and the mean value calculated for each group. Where tests for normality were positive the data initially was subjected to a one way analysis of variance test (ANOVA), followed by a Bonferroni correction for multiple comparisons in order to test for significance between treatment groups. A “p” value of ≤0.05 was considered to be statistically significant.
All data was also subjected to the Bartlets test for equal variances and for the majority of studies variances were generally equal, however as occurred in this study, occasionally some treatment groups would give a positive result. Non parametric analyses were therefore also used. As the data was normally distributed, parametric analyses (ANOVA) were quoted.
Percentage inhibitions were automatically calculated within the Excel spreadsheets for the cell data using the formula below: […]

[1] = second study, 10 mg/kg i.p. daily
[2] = first study, 10 mg/kg ip daily, 2 weeks, vs NaCl 0.9% control
[3] = first study, 30 mg/kg ip daily, 2 weeks, vs NaCl 0.9% control
[4] = second study, 30 mg/kg i.p. daily

For CN(N)[C@H](c1ccccc1)[C@@H](O)c1ccccc1 [BTT-2079, (1S,2R)-2-(1-methylhydrazino)-1,2-diphenylethanol], the lumen area (ApoE3 Leiden mice; [1]) was “No significant changes”, the media area (ApoE3 Leiden mice; [1]) was “No significant changes” and the neointima formation (ApoE3 Leiden mice; [1]) was “significant reduction”. The percentage lumen stenosis (ApoE3 Leiden mice; [1]) was “only significantly less in the BTT-2089 30 mg/kg group”, the vascular integrity (ApoE3 Leiden mice; [1]) was “not affected” and the vessel wall diameter (ApoE3 Leiden mice; [1]) was “No significant changes”. For the same molecule, the intima media ratio (ApoE3 Leiden mice; [1]) was “significantly less”.

In the case of NC/C(=C/F)CCc1ccc(F)cc1 [BTT-2089, (E)-2-(4-fluorophenethyl)-3-fluoroallylamine], the media formation (ApoE3 Leiden mice; [2]) is reported as “significant reduction”, the neointima formation (ApoE3 Leiden mice; [2]) is reported as “significant reduction” and the “lumen size (HPS stained vessel segments)” value (ApoE3 Leiden mice; first study, 10 mg/kg) is reported as “increased”. For the same molecule, the media formation (ApoE3 Leiden mice; [3]) was “significant reduction”, the neointima formation (ApoE3 Leiden mice; [3]) was “significant reduction” and the “lumen size (HPS stained vessel segments)” value (ApoE3 Leiden mice; first study, 30 mg/kg) was “increased”. The lumen area (ApoE3 Leiden mice; [4]) was “No significant changes”, the media area (ApoE3 Leiden mice; [4]) was “No significant changes” and the neointima formation (ApoE3 Leiden mice; [4]) was “significant reduction”. For the same molecule, the percentage lumen stenosis (ApoE3 Leiden mice; [4]) was “significant reduction”, the vascular integrity (ApoE3 Leiden mice; [4]) was “not affected” and the vessel wall diameter (ApoE3 Leiden mice; [4]) was “No significant changes”. The intima media ratio (ApoE3 Leiden mice; [4]) was “significantly less”.

O=C(Nc1c(Cl)cncc1Cl)c1ccc(OC(F)F)c(OCC2CC2)c1 [Roflumilast] was tested, and the “number of eosinophils in BAL” value (C57BL/6J mice; 5 mg/kg orally once daily) was “did not significantly reduce”, the “number of macrophages in BAL” value (C57BL/6J mice; 5 mg/kg orally once daily) was “did not significantly reduce” and the “reduction of epithelial cells in BAL” value (C57BL/6J mice; 5 mg/kg orally once daily) was 51%. The “reduction of lymphocytes in BAL” value (C57BL/6J mice; 5 mg/kg orally once daily) was 65%, the “reduction of neutrophils in BAL” value (C57BL/6J mice; 5 mg/kg orally once daily) was 63% and the “reduction of total number of cells in BAL” value (C57BL/6J mice) was 41%. The “reduction of total number of cells in BAL” value (C57BL/6J mice; listed as roflumilast) was “reduction”.
